Assay results as given in ChEMBL document CHEMBL5038670, “Design, Synthesis, and Biological Evaluation of Apcin-Based CDC20 Inhibitors” (ACS Med Chem Lett, 2022).
Calls of active or inactive are those of the source. No cut-off for these calls is given here.

Key:
[1] = system: MDA-MB-231; assay: Cytotoxicity against human TNBC MDA-MB-231 cells assessed as cell viability at 300 uM measured after 72 hrs relative to control; format: functional; settings: for viability at 300 µM: read-out: Activity
[2] = system: MDA-MB-468; assay: Cytotoxicity against human TNBC MDA-MB-468 cells assessed as cell viability at 300 uM measured after 72 hrs relative to control; format: functional; settings: for viability at 300 µM: read-out: Activity
[3] = system: MDA-MB-231; assay: Cytotoxicity against human TNBC MDA-MB-231 cells assessed as cell viability measured after 72 hrs; format: functional, cell-based; settings: MDA-MB-231, 72 h
[4] = system: MDA-MB-468; assay: Cytotoxicity against human TNBC MDA-MB-468 cells assessed as cell viability measured after 72 hrs; format: functional, cell-based; settings: MDA-MB-468, 72 h
[5] = species: Sus scrofa; assay: Inhibition of porcine brain tubulin polymerization at 10 uM measured for 60 mins by spectrophotometric method relative to control
[6] = system: MDA-MB-468; assay: Downregulation of cyclin B1 level in human TNBC MDA-MB-468 cells at 30 uM measured after 24 hrs by western blot analysis relative to control; format: functional, cell-based
[7] = system: MDA-MB-468; assay: Downregulation of se-curin level in human TNBC MDA-MB-468 cells at 30 uM measured after 24 hrs by western blot analysis relative to control; format: functional, cell-based
[8] = system: MDA-MB-468; assay: Effect on BimEL expression in human TNBC MDA-MB-468 cells at 10 to 30 uM measured after 24 hrs by western blot analysis relative to control; format: functional, cell-based; settings: dose 10-30 µM
[9] = system: MDA-MB-468; assay: Effect on BimL expression in human TNBC MDA-MB-468 cells at 10 to 30 uM measured after 24 hrs by western blot analysis relative to control; format: functional, cell-based; settings: dose 10-30 µM
[10] = system: MDA-MB-468; assay: Effect on BimS expression in human TNBC MDA-MB-468 cells at 10 to 30 uM measured after 24 hrs by western blot analysis relative to control; format: functional, cell-based; settings: dose 10-30 µM
[11] = system: MDA-MB-468; assay: Downregulation of CDC20 level in human TNBC MDA-MB-468 cells at 10 uM measured after 24 hrs by western blot analysis relative to control; format: functional, cell-based
[12] = system: MDA-MB-468; assay: Downregulation of CDC20 level in human TNBC MDA-MB-468 cells at 30 uM measured after 24 hrs by western blot analysis relative to control; format: functional, cell-based
[13] = system: MDA-MB-468; assay: Antitumor activity against human MDA-MB-468 cells assessed as induction of cell death at 30 uM measured after 24 hour relative to control; format: functional, cell-based
[14] = species: Sus scrofa; assay: Induction of porcine brain tubulin polymerization at 10 uM measured for 60 mins by spectrophotometric method relative to control; format: tissue-based

SMILES	IC50 [3] [µM]	IC50 [4] [µM]	further results
Cc1ncc([N+](=O)[O-])n1CCOC(=O)NC(Nc1c(Cl)nc(N)nc1Cl)C(F)(F)Cl (stereo not drawn)	–	–	Activity [1]: inactive; viability at 300 µM [2]: 52%
Cc1sc(NC(NC(=O)OCCn2c([N+](=O)[O-])cnc2C)C(F)(F)Cl)nc1-c1ccc(OC(F)(F)F)cc1 (stereo not drawn)	12	11.4	inhibition [5]: inactive; Activity [6]: Active; Activity [7]: Active; Activity [8]: Dose-Dependent Effect; Activity [9]: Dose-Dependent Effect; Activity [10]: Dose-Dependent Effect; Activity [11]: Active; Activity [12]: Active; Activity [13]: Active
COc1ccc(-c2csc(NC(NC(=O)OCCn3c([N+](=O)[O-])cnc3C)C(F)(Cl)Cl)n2)cc1 (stereo not drawn)	63.5	39.3	–
Cc1ncc([N+](=O)[O-])n1CCOC(=O)NC(Nc1nc2c(F)cc(F)cc2s1)C(F)(F)Cl (stereo not drawn)	106	101	–
COC(=O)c1ccc(-c2csc(NC(NC(=O)OCCn3c([N+](=O)[O-])cnc3C)C(F)(F)Cl)n2)cc1 (stereo not drawn)	34.5	18.7	–
Cc1ncc([N+](=O)[O-])n1CCOC(=O)NC(Nc1nc2ccc(S(C)(=O)=O)cc2s1)C(F)(F)Cl (stereo not drawn)	230	> 300	–
CC(=O)O[C@H]1C(=O)[C@@]2(C)[C@H]([C@H](OC(=O)c3ccccc3)[C@]3(O)C[C@H](OC(=O)[C@H](O)[C@@H](NC(=O)c4ccccc4)c4ccccc4)C(C)=C1C3(C)C)[C@]1(OC(C)=O)CO[C@@H]1C[C@@H]2O	–	–	inhibition [14]: Active
Cc1ncc([N+](=O)[O-])n1CCOC(=O)NC(Nc1nc(-c2ccc(OC(F)(F)F)cc2)cs1)C(F)(F)Cl (stereo not drawn)	12	23.3	–
CC(=O)Nc1ccc(-c2csc(NC(NC(=O)OCCn3c([N+](=O)[O-])cnc3C)C(F)(F)Cl)n2)cc1 (stereo not drawn)	75.7	66.5	–
Cc1sc(NC(NC(=O)OCCn2c([N+](=O)[O-])cnc2C)C(F)(F)Cl)nc1-c1ccc(Cl)cc1 (stereo not drawn)	12.6	10.1	inhibition [5]: inactive
Cc1ncc([N+](=O)[O-])n1CCOC(=O)NC(Nc1nc2ccccc2[nH]1)C(F)(F)Cl (stereo not drawn)	–	–	viability at 300 µM [1]: 70%; viability at 300 µM [2]: 47%
Cc1ncc([N+](=O)[O-])n1CCOC(=O)NC(Nc1ncc(C#N)cn1)C(F)(F)Cl (stereo not drawn)	–	–	Activity [2]: inactive
Cc1ncc([N+](=O)[O-])n1CCOC(=O)NC(Nc1nc2ccc(Cl)cc2s1)C(F)(F)Cl (stereo not drawn)	44.5	42.2	–
Cc1ncc([N+](=O)[O-])n1CCOC(=O)NC(Nc1nc2ccc(C#N)cc2s1)C(F)(F)Cl (stereo not drawn)	80.8	116	–
Cc1ncc([N+](=O)[O-])n1CCOC(=O)NC(Nc1ncccn1)C(F)(F)Cl (stereo not drawn)	–	–	viability at 300 µM [1]: 52%; viability at 300 µM [2]: 40%
